From paper PMC9437215, “Synthesis and antibacterial activity evaluation of N (7) position-modified balofloxacins” (Frontiers in Chemistry, 2022)
Values after ≈ are worked out from the molar mass of the structure shown.

Legend:
Assay type in all cases: cell-based
MRSA = test: MIC and MBC determinations in vitro, MRSA; conditions: Staphylococcus aureus, MRSA, 24 h, MRSA clinical isolate; for MIC: 24 h culture, read-out: MIC; for MBC: solid medium 24 h, read-out: MBC
Protocol: (§1) The three strains of MRSA, P. aeruginosa, and E. coli used in this experiment were from clinical isolates, which were provided by the People’s Liberation Army 304 Hospital.
(§2) To evaluate the antibacterial activities of newly synthesized N (7) position modified fluoroquinolones, the minimum inhibitory (MIC) and bactericidal (MBC) concentrations of these compounds toward bacteria were measured.

P. aeruginosa = test: MIC and MBC determinations in vitro, P. aeruginosa; conditions: Pseudomonas aeruginosa, P. aeruginosa clinical isolate; for MIC: 24 h culture, read-out: MIC; for MBC: solid medium 24 h, read-out: MBC
Protocol: as §1, §2

E. coli = test: MIC and MBC determinations in vitro, E. coli; conditions: Escherichia coli, E. coli clinical isolate; for MIC: 24 h culture; for MBC: solid medium 24 h
Protocol: as §1, §2

| SMILES | MIC (MRSA) [µg/mL] | MIC (P. aeruginosa) [µg/mL] | MIC (E. coli) [µg/mL] | MBC (MRSA) [µg/mL] | MBC (P. aeruginosa) [µg/mL] | MBC (E. coli) [µg/mL] |
| --- | --- | --- | --- | --- | --- | --- |
| COc1c(N2C[C@@H]3CCCN[C@@H]3C2)c(F)cc2c(=O)c(C(=O)O)cn(C3CC3)c12 [Compound 1f, moxifloxacin, reference compound] | 0.039 (≈ 0.0972 µM) | 0.039 (≈ 0.0972 µM) | 0.039 (≈ 0.0972 µM) | 0.039 (≈ 0.0972 µM) | 0.039 (≈ 0.0972 µM) | 0.039 (≈ 0.0972 µM) |
| COc1c(N2CC3CCCN(C(C)=O)C3C2)c(F)cc2c(=O)c(C(=O)O)cn(C3CC3)c12 (stereo not drawn) [Compound 2-f, 7-(1-Acetyloctahydro-6H-pyrrolo[3,4-b]pyridin-6-yl)-1-cyclopropyl-6-fluoro-8-methoxy-4-oxo-1,4-dihydroquinoline-3-carboxylic acid] | 0.313 (≈ 0.706 µM) | 0.313 (≈ 0.706 µM) | 0.313 (≈ 0.706 µM) | 0.625 (≈ 1.41 µM) | 0.625 (≈ 1.41 µM) | 0.625 (≈ 1.41 µM) |
| CCC(=O)N(C)C1CCCN(c2c(F)cc3c(=O)c(C(=O)O)cn(C4CC4)c3c2OC)C1 (stereo not drawn) [Compound 3-e, 1-Cyclopropyl-6-fluoro-8-methoxy-7-(3-(N-methylpropionamido)piperidin-1-yl)-4-oxo-1,4-dihydroquinoline-3-carboxylic acid] | 0.039 (≈ 0.0875 µM) | 0.078 (≈ 0.175 µM) | 5 (≈ 11.2 µM) | 0.078 (≈ 0.175 µM) | 0.078 (≈ 0.175 µM) | 10 (≈ 22.4 µM) |
| CCCC(=O)N(C)C1CCCN(c2c(F)cc3c(=O)c(C(=O)O)cn(C4CC4)c3c2OC)C1 (stereo not drawn) [Compound 4-e, 1-Cyclopropyl-6-fluoro-8-methoxy-7-(3-(N-methylbutyramido)piperidin-1-yl)-4-oxo-1,4-dihydroquinoline-3-carboxylic acid] | 0.039 (≈ 0.0849 µM) | 0.078 (≈ 0.17 µM) | 5 (≈ 10.9 µM) | 0.078 (≈ 0.17 µM) | 0.078 (≈ 0.17 µM) | 20 (≈ 43.5 µM) |
| CCCCC(=O)N(C)C1CCCN(c2c(F)cc3c(=O)c(C(=O)O)cn(C4CC4)c3c2OC)C1 (stereo not drawn) [Compound 5-e, 1-Cyclopropyl-6-fluoro-8-methoxy-7-(3-(N-methylpentanamido)piperidin-1-yl)-4-oxo-1,4-dihydroquinoline-3-carboxylic acid] | 0.078 (≈ 0.165 µM) | 0.078 (≈ 0.165 µM) | 10 (≈ 21.1 µM) | 0.156 (≈ 0.329 µM) | 0.156 (≈ 0.329 µM) | 20 (≈ 42.2 µM) |

Second part, led by results:

| MIC (MRSA) [µg/mL] | MIC (P. aeruginosa) [µg/mL] | MIC (E. coli) [µg/mL] | SMILES | MBC (MRSA) [µg/mL] | MBC (P. aeruginosa) [µg/mL] | MBC (E. coli) [µg/mL] |
| --- | --- | --- | --- | --- | --- | --- |
| 0.156 (≈ 0.32 µM) | 0.313 (≈ 0.642 µM) | 20 (≈ 41 µM) | CCCCCC(=O)N(C)C1CCCN(c2c(F)cc3c(=O)c(C(=O)O)cn(C4CC4)c3c2OC)C1 (stereo not drawn) [Compound 6-e, 1-Cyclopropyl-6-fluoro-8-methoxy-7-(3-(N-methylhexanamido)piperidin-1-yl)-4-oxo-1,4-dihydroquinoline-3-carboxylic acid] | 0.625 (≈ 1.28 µM) | 0.625 (≈ 1.28 µM) | 20 (≈ 41 µM) |
| 0.313 (≈ 0.624 µM) | 0.625 (≈ 1.25 µM) | > 40 | CCCCCCC(=O)N(C)C1CCCN(c2c(F)cc3c(=O)c(C(=O)O)cn(C4CC4)c3c2OC)C1 (stereo not drawn) [Compound 7-e, 1-Cyclopropyl-6-fluoro-8-methoxy-7-(3-(N-methylheptanamido)piperidin-1-yl)-4-oxo-1,4-dihydroquinoline-3-carboxylic acid] | 0.625 (≈ 1.25 µM) | 1.25 (≈ 2.49 µM) | > 40 |
| 0.078 (≈ 0.158 µM) | 0.156 (≈ 0.316 µM) | 20 (≈ 40.5 µM) | COc1c(N2CCCC(N(C)C(=O)c3ccccc3)C2)c(F)cc2c(=O)c(C(=O)O)cn(C3CC3)c12 (stereo not drawn) [Compound 12-e, 1-Cyclopropyl-6-fluoro-8-methoxy-7-(3-(N-methylbenzamido)piperidin-1-yl)-4-oxo-1,4-dihydroquinoline-3-carboxylic acid] | 0.313 (≈ 0.634 µM) | 0.313 (≈ 0.634 µM) | 20 (≈ 40.5 µM) |
| 0.078 (≈ 0.158 µM) | 0.078 (≈ 0.158 µM) | 10 (≈ 20.2 µM) | COc1c(N2CCCC(N(C)C(=O)c3cccnc3)C2)c(F)cc2c(=O)c(C(=O)O)cn(C3CC3)c12 (stereo not drawn) [Compound 15-e, 1-Cyclopropyl-6-fluoro-8-methoxy-7-(3-(N-methylnicotinamido)piperidin-1-yl)-4-oxo-1,4-dihydroquinoline-3-carboxylic acid] | 0.156 (≈ 0.315 µM) | 0.156 (≈ 0.315 µM) | 20 (≈ 40.4 µM) |
